Here are results for 12 compounds from patent US20250326744A1, “PIPERAZINE DERIVATIVE OR SALT THEREOF, AND PHARMACEUTICAL COMPOSITION” (priority 2022, published 2025).

The subject of one assay is S-3769 strain. Description: Combinational effect with antibacterial agent against Pseudomonas aeruginosa (Test Examples 2 and 4): S-3769 strain with AMK or GM at 1/4 MIC, EC99. Type of assay: cell-based. The note with it: S-3769 strain, Test Example 4; for EC99, combinational effect with AMK, S-3769 strain: combined with AMK at 1/4 MIC; for EC99, combinational effect with GM, S-3769 strain: combined with GM at 1/4 MIC. A digest of the protocol:
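EC99, the lowest test-compound concentration inhibiting growth by ≥99% (OD595), was measured with aminoglycoside AMK or GM held at ¼ MIC. Strain S-3769, a MexY-overexpressing clinical isolate, was cultured in CAMHB at 10^4 to 5 CFU/well for 16–20 h; compound range 0–800 μM.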

A further assay has as its system mexB (PA) strain. Description: Combinational effect with antibacterial agent against Pseudomonas aeruginosa (Test Examples 2 and 4): mexB (PA) strain with LVFX, TC or AZT at 1/4 MIC, EC99. Type of assay: cell-based. The note with it: mexB (PA) strain, Test Example 4; for EC99, combinational effect with AZT, mexB (PA): combined with AZT at 1/4 MIC; for EC99, combinational effect with LVFX, mexB (PA): combined with LVFX at 1/4 MIC; for EC99, combinational effect with TC, mexB (PA): combined with TC at 1/4 MIC. A digest of the protocol: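 EC99 denotes the minimum test-compound concentration (range 0–800 μM) that suppresses ≥99% of growth, measured by OD595, when combined with ¼ MIC levofloxacin (LVFX), tetracycline or aztreonam. The efflux-pump mutant mexB (PA), expressing mainly MexAB-OprM, was inoculated at 10^4–5 CFU/well in CAMHB for 16–20 h.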

Another assay concerns mexY (EC) strain. The experiment in a line: Efflux ability inhibition effect on drug efflux pump MexY (Test Examples 1 and 3): proliferation (OD595) of mexY (EC) strain with EM or LVFX at 1/4 MIC, EC75. Type of assay: cell-based, Escherichia coli. The note with it: for EC75, mexY (EC) strain, LVFX: combined with LVFX at 1/4 MIC; for EC75, mexY (EC) strain, EM: combined with EM at 1/4 MIC. An outline of the steps: (§1)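 E. coli ΔacrB/ΔtolC strains carrying P. aeruginosa MexAB-OprM or MexXY-OprM were grown in LB for 16 to 20 hours with EM or LVFX at ¼ MIC plus compound (0 to 800 μM). Growth was read as OD595. EC75 is the lowest compound concentration giving ≥75% growth inhibition versus antibiotic alone.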

The test system of another assay is mexB (EC) strain. The experiment in a line: Efflux ability inhibition effect on drug efflux pump MexB (Test Examples 1 and 3): proliferation (OD595) of mexB (EC) strain with EM or LVFX at 1/4 MIC, EC75. Type of assay: cell-based, Escherichia coli. Conditions: for EC75, mexB (EC) strain, LVFX: combined with LVFX at 1/4 MIC; for EC75, mexB (EC) strain, EM: combined with EM at 1/4 MIC. A digest of the protocol: as §1

The mark [1] stands for this setting: Table 53, Test Example 3, same manner as Test Example 1.
Where [2] appears, read: Table 51, Test Example 1, 16 to 20 hours culture, OD595.

Structures are written as SMILES. Counter-ions that a name gives are not always drawn.

As to `N[C@@H](C(=O)N1CCN(C[C@@H]2CCCN2)CC1)C1CCN(CCc2cc(Cl)ccc2-c2ccccc2)CC1` [Example 538, Hydrobromide of (R)-2-amino-2-(1-(2-(4-chloro-[1,1-biphenyl]-2-yl)ethyl)piperidin-4-yl)-1-(4-(((S)-pyrrolidin-2-yl)methyl)piperazin-1-yl)ethan-1-one], in the assay on S-3769 strain, the “EC99, combinational effect with AMK, S-3769 strain” value is “C (100 μM<EC99)” and the “EC99, combinational effect with GM, S-3769 strain” value was “C (100 μM<EC99)”. In addition, in the assay on mexB (PA) strain, the “EC99, combinational effect with AZT, mexB (PA)” value is “C (100 μM<EC99)”; the “EC99, combinational effect with LVFX, mexB (PA)” value was “C (100 μM<EC99)”; the “EC99, combinational effect with TC, mexB (PA)” value is “C (100 μM<EC99)”. For the same compound, the “EC75, mexY (EC) strain, LVFX” value with mexY (EC) strain (setting [1]) is “A (12.5 μM<EC75≤25 μM)”. Besides, the “EC75, mexB (EC) strain, LVFX” value in the assay on mexB (EC) strain (setting [1]) was “B (25 μM<EC75≤100 μM)”.

Take `COc1cncc(F)c1CN1CCN(C(=O)[C@H](N)C2CCN(CCc3cc(Cl)ccc3-c3ccccc3)CC2)CC1` [Example 514, Hydrobromide of (R)-2-amino-2-(1-(2-(4-chloro-[1,1-biphenyl]-2-yl)ethyl)piperidin-4-yl)-1-(4-((3-fluoro-5-methoxypyridin-4-yl)methyl)piperazin-1-yl)ethan-1-one]: in the assay with S-3769 strain, the “EC99, combinational effect with AMK, S-3769 strain” value is reported as “B (25 μM<EC99≤100 μM)” and the “EC99, combinational effect with GM, S-3769 strain” value was “B (25 μM<EC99≤100 μM)”. Further, in the assay with mexB (PA) strain, the “EC99, combinational effect with AZT, mexB (PA)” value was “C (100 μM<EC99)”; the “EC99, combinational effect with LVFX, mexB (PA)” value is on record as “C (100 μM<EC99)”; the “EC99, combinational effect with TC, mexB (PA)” value is reported as “C (100 μM<EC99)”. In addition, in the assay with mexY (EC) strain (setting [1]), the “EC75, mexY (EC) strain, EM” value is recorded as “B (25 μM<EC75≤100 μM)” and the “EC75, mexY (EC) strain, LVFX” value is given as “B (25 μM<EC75≤100 μM)”. Besides, in the assay on mexB (EC) strain (setting [1]), the “EC75, mexB (EC) strain, EM” value was “B (25 μM<EC75≤100 μM)” and the “EC75, mexB (EC) strain, LVFX” value is given as “B (25 μM<EC75≤100 μM)”.

`COc1ccccc1CN1CCN(C(=O)CN2CCC(CN)(CCc3ccccc3)CC2)CC1` [Example 413, hydrochloride of 2-(4-(aminomethyl)-4-phenethylpiperidin-1-yl)-1-(4-(2-methoxybenzyl)piperazin-1-yl)ethan-1-one]: the “EC75, mexY (EC) strain, EM” value with mexY (EC) strain (setting [2]) was “A (12.5 μM<EC75≤25 μM)”. In addition, in the assay on mexB (EC) strain (setting [2]), the “EC75, mexB (EC) strain, EM” value is listed as “A (12.5 μM<EC75≤25 μM)” and the “EC75, mexB (EC) strain, LVFX” value is listed as “A (12.5 μM<EC75≤25 μM)”.

Regarding `COc1ccccc1CN1CCN(C(=O)C(=NN)C2CCN(CCc3ccccc3)CC2)CC1` [Example 301, hydrochloride of 2-hydrazinyliden-1-(4-(2-methoxybenzyl)piperazin-1-yl)-2-(1-phenethylpiperidin-4-yl)ethan-1-one], in the assay on mexY (EC) strain (setting [2]), the “EC75, mexY (EC) strain, EM” value is “B (25 μM<EC75≤100 μM)” and the “EC75, mexY (EC) strain, LVFX” value is reported as “B (25 μM<EC75≤100 μM)”. In the assay on mexB (EC) strain (setting [2]), the “EC75, mexB (EC) strain, EM” value is “B (25 μM<EC75≤100 μM)” and the “EC75, mexB (EC) strain, LVFX” value is reported as “B (25 μM<EC75≤100 μM)”.

`COc1ccccc1CN1CCN(C(=O)[C@@H](N)C2CCN(CCc3ccccc3)CC2)CC1` [Example 112, Hydrochloride of (S)-2-amino-1-(4-(2-methoxybenzyl)piperazin-1-yl)-2-(1-phenethylpiperidin-4-yl)ethan-1-one]: in the assay on mexY (EC) strain (setting [2]), the “EC75, mexY (EC) strain, EM” value is “A (12.5 μM<EC75≤25 μM)” and the “EC75, mexY (EC) strain, LVFX” value was “A (12.5 μM<EC75≤25 μM)”. In the assay on mexB (EC) strain (setting [2]), the “EC75, mexB (EC) strain, EM” value is “B (25 μM<EC75≤100 μM)” and the “EC75, mexB (EC) strain, LVFX” value is “B (25 μM<EC75≤100 μM)”.

Regarding `O=C(O)c1ccccc1CN1CCN(C(=O)CN2CCN(CCc3ccccc3)CC2)CC1` [Example 256, sodium salt of 2-((4-(2-(4-phenethylpiperazin-1-yl)acetyl)piperazin-1-yl)methyl)benzenecarboxylic acid], the “EC75, mexY (EC) strain, EM” value with mexY (EC) strain (setting [2]) is listed as “B (25 μM<EC75≤100 μM)”. Further, the “EC75, mexB (EC) strain, EM” value in the assay with mexB (EC) strain (setting [2]) is “B (25 μM<EC75≤100 μM)”.

As for `COc1ccccc1CN1CCN(C(=O)CN2CCC(N)(CCc3ccccc3)CC2)CC1` [Example 414, hydrochloride of 2-(4-amino-4-phenethylpiperidin-1-yl)-1-(4-(2-methoxybenzyl)piperazin-1-yl)ethan-1-one], in the assay with mexY (EC) strain (setting [2]), the “EC75, mexY (EC) strain, EM” value is recorded as “B (25 μM<EC75≤100 μM)” and the “EC75, mexY (EC) strain, LVFX” value was “B (25 μM<EC75≤100 μM)”. The “EC75, mexB (EC) strain, LVFX” value in the assay with mexB (EC) strain (setting [2]) is “A (12.5 μM<EC75≤25 μM)”.

Regarding `COc1ccccc1CN1CCN(C(=O)C(=NO)C2CCN(CCc3ccccc3)CC2)CC1` [Example 302, hydrochloride of 2-(hydroxyimino)-1-(4-(2-methoxybenzyl)piperazin-1-yl)-2-(1-phenethylpiperidine-4-yl)ethan-1-one], in the assay with mexY (EC) strain (setting [2]), the “EC75, mexY (EC) strain, EM” value is given as “B (25 μM<EC75≤100 μM)” and the “EC75, mexY (EC) strain, LVFX” value is “B (25 μM<EC75≤100 μM)”. Also, the “EC75, mexB (EC) strain, EM” value with mexB (EC) strain (setting [2]) is on record as “B (25 μM<EC75≤100 μM)”.

As for `CN[C@@H](C(=O)N1CCN(Cc2ccccc2OC)CC1)C1CCN(CCc2ccccc2)CC1` [Example 131, hydrochloride of (R)-1-(4-(2-methoxybenzyl)piperazin-1-yl)-2-(methylamino)-2-(1-phenethylpiperidin-4-yl)ethan-1-one], in the assay with mexY (EC) strain (setting [2]), the “EC75, mexY (EC) strain, EM” value is listed as “B (25 μM<EC75≤100 μM)” and the “EC75, mexY (EC) strain, LVFX” value is “B (25 μM<EC75≤100 μM)”. Moreover, in the assay with mexB (EC) strain (setting [2]), the “EC75, mexB (EC) strain, EM” value is reported as “B (25 μM<EC75≤100 μM)” and the “EC75, mexB (EC) strain, LVFX” value is recorded as “B (25 μM<EC75≤100 μM)”.

On to `CCOc1cccc(/C=C/C#N)c1CN1CCN(C(=O)[C@H](N)C2CCN(CCc3ccccc3)CC2)CC1` [Example 34], for which, in the assay on mexY (EC) strain (setting [2]), the “EC75, mexY (EC) strain, EM” value is “A (12.5 μM<EC75≤25 μM)” and the “EC75, mexY (EC) strain, LVFX” value is “A (12.5 μM<EC75≤25 μM)”. For the same compound, in the assay on mexB (EC) strain (setting [2]), the “EC75, mexB (EC) strain, EM” value is recorded as “B (25 μM<EC75≤100 μM)” and the “EC75, mexB (EC) strain, LVFX” value is “B (25 μM<EC75≤100 μM)”.

Consider `CCOc1cccc(F)c1CN1CCN(C(=O)[C@H](N)C2CCN(CC(F)(F)c3ccccc3)CC2)CC1` [Example 54, Hydrobromide of (R)-2-amino-2-(1-(2,2-difluoro-2-phenylethyl)piperidin-4-yl)-1-(4-(2-ethoxy-6-fluorobenzyl)piperazin-1-yl) ethan-1-one], for which, in the assay with mexY (EC) strain (setting [2]), the “EC75, mexY (EC) strain, EM” value is “B (25 μM<EC75≤100 μM)” and the “EC75, mexY (EC) strain, LVFX” value is “B (25 μM<EC75≤100 μM)”. For the same compound, in the assay on mexB (EC) strain (setting [2]), the “EC75, mexB (EC) strain, EM” value was “B (25 μM<EC75≤100 μM)” and the “EC75, mexB (EC) strain, LVFX” value is “B (25 μM<EC75≤100 μM)”.

For `COc1ccccc1CN1CCN(C(=O)CN2CCC(NC(=O)c3ccc(O)c(O)c3Cl)CC2)CC1` [Example 418, hydrochloride of 2-chloro-3,4-dihydroxy-N-(1-(2-(4-(2-methoxybenzyl)piperazin-1-yl)-2-oxoethyl)piperidin-4-yl)benzamide], in the assay with mexY (EC) strain (setting [2]), the “EC75, mexY (EC) strain, LVFX” value is given as “A (12.5 μM<EC75≤25 μM)”. Moreover, in the assay on mexB (EC) strain (setting [2]), the “EC75, mexB (EC) strain, EM” value is given as “B (25 μM<EC75≤100 μM)” and the “EC75, mexB (EC) strain, LVFX” value was “B (25 μM<EC75≤100 μM)”.
